The EC50 is the concentration that produces a half-maximal response.

In the assay the target is T1, human RXFP1 (Homo sapiens, UniProt Q9HBX9).
T1 construct: expressed in transfected cells
T1 sequence (Q9HBX9 1-757): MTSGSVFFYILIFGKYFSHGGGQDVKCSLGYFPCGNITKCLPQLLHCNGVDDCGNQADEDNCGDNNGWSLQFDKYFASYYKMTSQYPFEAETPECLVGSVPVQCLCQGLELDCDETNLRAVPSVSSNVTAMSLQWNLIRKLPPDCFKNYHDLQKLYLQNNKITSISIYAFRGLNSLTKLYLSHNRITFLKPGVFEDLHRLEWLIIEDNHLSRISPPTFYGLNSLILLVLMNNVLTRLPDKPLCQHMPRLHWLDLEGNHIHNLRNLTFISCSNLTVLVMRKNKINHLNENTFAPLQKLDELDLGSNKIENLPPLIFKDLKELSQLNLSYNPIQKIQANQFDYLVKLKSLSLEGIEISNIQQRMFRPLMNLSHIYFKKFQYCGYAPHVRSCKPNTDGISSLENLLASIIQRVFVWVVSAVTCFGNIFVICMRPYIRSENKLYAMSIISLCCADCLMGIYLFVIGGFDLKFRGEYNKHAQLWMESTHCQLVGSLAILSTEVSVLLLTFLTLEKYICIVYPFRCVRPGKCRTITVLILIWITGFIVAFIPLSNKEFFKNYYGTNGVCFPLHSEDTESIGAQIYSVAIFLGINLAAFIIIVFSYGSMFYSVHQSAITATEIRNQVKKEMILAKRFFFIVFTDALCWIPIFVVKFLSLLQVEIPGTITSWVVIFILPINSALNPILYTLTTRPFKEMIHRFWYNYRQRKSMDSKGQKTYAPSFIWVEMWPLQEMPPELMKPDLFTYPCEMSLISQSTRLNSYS
The assay is described as follows: hRXFP1 HEK293 cAMP assay (HTRF). It counts as cell-based. To be noted: HEK293 cells stably expressing human RXFP1, 30 min at room temperature. The protocol: RXFP1 Cyclic Adenosine Monophosphate (cAMP) Assays. […] Cells were dissociated and suspended in assay buffer. The assay buffer was HBSS buffer (with calcium and magnesium) containing 20 mM HEPES, 0.05% BSA, and 0.5 mM IBMX. Cells (3000 cells per well, except 1500 cell per well for HEK293 cells stably expressing human RXFP1) were added to 384-well Proxiplates (Perkin-Elmer). Cells were immediately treated with test compounds in DMSO (2% final) at final concentrations in the range of 0.010 nM to 50 μM. Cells were incubated for 30 min at room temperature. The level of intracellular cAMP was determined using the HTRF HiRange cAMP assay reagent kit (Cisbio) according to manufacturer's instructions. Solutions of cryptate conjugated anti-cAMP and d2 fluorophore-labelled cAMP were made in a supplied lysis buffer separately. Upon completion of the reaction, the cells were lysed with equal volume of the d2-cAMP solution and anti-cAMP solution. […] The potency and activity of a compound to […] cAMP production was then determined by fitting to a 4-parametric logistic equation from a plot of cAMP level versus compound concentrations.
The compound `COCc1ncn(Cc2ccc(OC)c(C(=O)N[C@H]3[C@@H](C(=O)Nc4ccc(F)c(C(F)(F)F)c4)[C@H]4CC[C@@H]3/C4=C\C3CC3)c2)n1` [Example 296, (1R,2S,3R,4R,7Z)-7-(cyclopropyl-methylidene)-N-[4-fluoro-3-(trifluoromethyl)phenyl]-3-(2-methoxy-5-{[3-(methoxymethyl)-1H-1,2,4-triazol-1-yl]methyl}benzamido) bicyclo[2.2.1] heptane-2-carboxamide] displayed an EC50 of 107 nM.
As for `COc1ccc(CCCCCCC#N)cc1C(=O)NC1C2CCC(/C2=C/C2CCC2)[C@@H]1C(=O)Nc1ccc(F)c(C(F)(F)F)c1` (stereo partly shown) [Example 192, (7Z)-3-[5-(6-cyanohexyl)-2-methoxybenzamido]-7-(cyclobutylmethyl-idene)-N-[4-fluoro-3-(trifluoromethyl)phe-nyl]bicyclo[2.2.1] heptane-2-carboxamide], the figure is 33 nM; as for `COc1cc2c(cc1C(=O)N[C@H]1[C@@H](C(=O)Nc3ccc(F)c(C(F)(F)F)c3)[C@H]3CC[C@@H]1/C3=C\C(F)(F)F)CCC2` [Example 273, [(1R,2R,3S,4R,7Z)-3-{[4-fluoro~3-(trifluoromethyl)phenyl]carbamoyl}-7-(2,2,2-trifluoroethylidene)bicyclo[2.2.1]heptan-2-yl]-6-methoxy-2,3-dihydro-IH-indene-5-carboxamide], 3440 nM.
On to `COc1ccc(COC2(C(=O)NCCO)CC2)cc1C(=O)N[C@@H]1C2CCC(/C2=C/C2CC2)[C@@H]1C(=O)Nc1ccc(F)c(C(F)(F)F)c1` (stereo partly shown) [Example 17], for which the EC50 came to 121 nM.
As for `COc1ccc(C[C@H]2C[C@H](O)C2)cc1C(=O)N[C@H]1[C@@H](C(=O)Nc2ccc(F)c(C(F)(F)F)c2)[C@H]2CC[C@@H]1/C2=C\C(F)(F)F` [Example 278, (1R,2S,3R,4R,7Z)-N-[4-fluoro-3-(trifluoromethyl)phenyl]-3-(2-methoxy-5-{[(1r,3s)-3-hydroxycyclobutyl]methyl}benzamido)-7-(2,2,2-trifluoroethylidene) bicyclo[2.2.1]heptane-2-carboxamide], the figure is 32 nM.
The result for `COc1ccc(C(=O)N2CCC(S(C)(=O)=O)C2)cc1C(=O)N[C@H]1[C@@H](C(=O)Nc2ccc(F)c(C(F)(F)F)c2)[C@H]2CC[C@@H]1/C2=C\C1CC1` (stereo partly shown) [Example 256] reads 12.6 nM; that for `COc1cc(C#CCO)ccc1C(=O)N[C@@H]1C2CCC(/C2=C/C(F)(F)F)[C@@H]1C(=O)Nc1ccc(F)c(C(F)(F)F)c1` (stereo partly drawn) [Example 74, (2S,3R,7Z)-N-[4-fluoro-3-(trifluoromethyl)phe-nyl]-3-[4-(3-hydroxyprop-1-yn-1-yl)-2-methoxybenzamido]-7-(2,2,2-trifluoroethylidene)bi-cyclo[2.2.1]heptane-2-carboxamide], 3550 nM; that for `COc1ccc(COc2c(F)cccc2C(OC(=O)Nc2ccccc2)C(F)(F)F)cc1C(=O)N[C@H]1[C@@H](C(=O)Nc2ccc(F)c(C(F)(F)F)c2)[C@H]2CC[C@@H]1/C2=C\C1CC1` (stereo partly drawn) [Example 364, 1-(2-((3-(((1R,2R,3S,4R,Z)-7-(cyclopropyl-methylene)-3-((4-fluoro-3-(trifluoromethyl)phenyl)carbamoyl)bicyclo[2.2.1]heptan-2-yl)carbamoyl)-4-methoxybenzyl)oxy)-3-fluorophenyl)-2,2,2-trifluoroethyl phenylcarbamate], 1.1 nM.
Regarding `CCOC(=O)/C(C)=C/c1ccc(OC)c(C(=O)N[C@H]2[C@@H](C(=O)Nc3ccc(F)c(C(F)(F)F)c3)[C@H]3CC[C@@H]2/C3=C\C(F)(F)F)c1` [Example 318, ethyl (2E)-3-(3-{[(1R,2R,3S,4R,7Z)-3-{[4-fluoro-3-(trifluoromethyl)phenyl]carbamoyl}-7-(2,2,2-trifluoroethylidene)bicyclo[2.2.1]heptan-2-yl]carbamoyl}-4-methoxyphenyl)-2-methylprop-2-enoate], a half-maximal effect (EC50) was put at 2230 nM.
Turning to `COc1ccc(CCCNC(=O)C(C)(C)O)cc1C(=O)N[C@@H]1C2CCC(/C2=C/C(F)(F)F)[C@@H]1C(=O)Nc1ccc(F)c(C(F)(F)F)c1` (stereo partly drawn) [Example 113, (2S,3R,7Z)-N-[4-fluoro-3-(trifluoromethyl)phe-nyl]-3-{5-[3-(2-hydroxy-2-methylpropanamido)propyl]-2-methoxybenzamido}-7-(2,2,2-trifluoroethylidene)bi-cyclo[2.2.1]heptane-2-carboxamide], the EC50 stood at 341 nM.
`CCOC(=O)C1CCC(c2ccc(OC)c(C(=O)NC3C4CCC(/C4=C/C(F)(F)F)[C@@H]3C(=O)Nc3ccc(F)c(C(F)(F)F)c3)c2)CC1` (stereo partly drawn) [Example 143, ethyl 4-(3-{[(2R,3S,7Z)-3-{[4-fluoro-3-(trifluoromethyl)phe-nyl]carbamoyl}-7-(2,2,2-trifluoroethylidene)bi-cyclo[2.2.1]heptan-2-yl]carbamoyl}-4-methoxyphenyl)cyclo-hexane-1-carboxylate] had a concentration giving a half-maximal response (EC50) of 202 nM.
As for `COc1ccc(C(=O)N2CC[C@H](O)C2)cc1C(=O)N[C@H]1[C@@H](C(=O)Nc2ccc(F)c(C(F)(F)F)c2)[C@H]2CC[C@@H]1/C2=C\C1CC1` [Example 254, (1R,2S,3R, 4R,7Z)-7-(cyclopropyl-methylidene)-N-[4-fluoro-3-(trifluoromethyl)phenyl]-3-{5-[(3S)-3-hydroxypyrrolidine-1-carbonyl]-2-methoxybenzamido} bicyclo[2.2.1] heptane-2-carboxamide], the figure is 54 nM; as for `COc1ccc(CCCCOC(=O)NC2CCC2)cc1C(=O)N[C@@H]1C2CCC(/C2=C/C(F)(F)F)[C@@H]1C(=O)Nc1ccc(F)c(C(F)(F)F)c1` (stereo partly drawn) [Example 102, 4-(3-{[(2R,3S,7Z)-3-{[4-fluoro-3-(trifluoromethyl)phe-nyl]carbamoyl}-7-(2,2,2-trifluoroethylidene)bi-cyclo[2.2.1]heptan-2-yl]carbamoyl}-4-methoxyphenyl)butyl N-cyclobutylcarbamate], 439 nM.
`COC(=O)c1ccc(F)cc1Cc1ccc(OC)c(C(=O)NC2C3CCC(/C3=C/C(F)(F)F)[C@@H]2C(=O)Nc2ccc(F)c(C(F)(F)F)c2)c1` (stereo partly drawn) [Example 156, methyl 4-fluoro-2-[(3-{[(2R,3S,7Z)-3-{[4-fluoro-3-(trifluoromethyl)phe-nyl]carbamoyl}-7-(2,2,2-trifluoroethylidene)bi-cyclo[2.2.1]heptan-2-yl]carbamoyl}-4-methoxyphenyl)meth-yl]benzoate]: the EC50 worked out at 464 nM. The EC50 values of the last two compounds are within 1.5-fold of each other.
Consider `COc1ccc(CCC(C)(C)O)cc1C(=O)NC1C2CCC(/C2=C/CC(F)F)[C@@H]1C(=O)Nc1ccc(F)c(C(F)(F)F)c1` (stereo partly shown) [Example 175, (7Z)-7-(3,3-difluoropropylidene)-N-[4-fluoro-3-(trifluoromethyl)phe-nyl]-3-[5-(3-hydroxy-3-methylbutyl)-2-methoxybenzamido] bicyclo[2.2.1]heptane-2-carboxamide], for which the EC50 was found to be 311 nM.
As for `COc1ccc(/C=C/C(=O)N(C)CCO)cc1C(=O)N[C@@H]1C2CCC(/C2=C/C(F)(F)F)[C@@H]1C(=O)Nc1ccc(F)c(C(F)(F)F)c1` (stereo partly drawn) [Example 126, (2S,3R,7Z)-N-[4-fluoro-3-(trifluoromethyl)phe-nyl]-3-{5-[(1E)-2-[(2-hydroxyethyl)(meth-yl)carbamoyl]eth-1-en-1-yl]-2-methoxybenzamido}-7-(2,2,2-trifluoroethylidene)bi-cyclo[2.2.1]heptane-2-carboxamide], the figure is 35 nM; as for `COc1ccc(CCCC(F)(F)F)cc1C(=O)NC1C2CCC(/C2=C/C2CCC2)[C@@H]1C(=O)Nc1ccc(F)c(C(F)(F)F)c1` (stereo partly shown) [Example 195, (7Z)-7-(cyclobutylmethylidene)-N-[4-fluoro-3-(trifluoromethyl)phe-nyl]-3-[2-methoxy-5-(4,4,4-trifluorobutyl)benza-mido]bicyclo[2.2.1] heptane-2-carboxamide], 59 nM; as for `COc1ccc([C@H]2C[C@H](O)C2)cc1C(=O)NC1C2CCC(/C2=C/C(F)(F)F)[C@@H]1C(=O)Nc1ccc(F)c(C(F)(F)F)c1` (stereo partly drawn) [Example 145, (2S,3R,7Z)-N-[4-fluoro-3-(trifluoromethyl)phe-nyl]-3-{2-methoxy-5-[(1r,3r)-3-hydroxycyclobutyl]benzamido}-7-(2,2,2-trifluoroethylidene)bi-cyclo[2.2.1]heptane-2-carboxamide], 84 nM.
In the case of `COc1ccc(C2CCCC(O)C2)cc1C(=O)N[C@@H]1C2CCC(/C2=C/C(F)(F)F)[C@@H]1C(=O)Nc1ccc(F)c(C(F)(F)F)c1` (single isomer, unassigned) [Example 37], the EC50 turned out to be 780 nM.
